In patent US11065211B2, “Isoxylitones mediated neurogenesis” (priority 2018, dated 2021):

Assays:
Format in all cases: cell-based, rat
[1] = system: cortical cells and hippocampal cells; assay: MTT assay, in vitro screening of compounds for cell proliferation activity; conditions: 24 hrs treatment
Excerpt: The Tetrazolium MTT [3-(4, 5-dimethyl thiazol-2-yl)-2,5-diphenyl tetrazolium bromide] Assay: MTT assay was used to screen various compounds for their proliferating effect on cortical cells and hippocampal cells. The principle of MTT test is based on the ability of live cells to form insoluble purple formazan product from the breakdown of the water soluble yellow tetrazolium salt by mitochondrial enzyme succinate dehydrogenase (Mosmann, 1983). The resulting intracellular purple formazan can quantify by spectrophotometric means. The MTT Cell Proliferation Assay measures the cell proliferation rate and conversely, when metabolic events lead to apoptosis or necrosis, the reduction in cell viability.
The density of the cortical and hippocampal cells was adjusted at the density 2×10^5 cells/mL in complete DMEM medium (5% FBS). The cells (5000/well) were then plated in 96-wells plate and incubated for 24 hrs at 37° C. with 5% CO2. Following 24 hrs incubation, media was removed and 100 μL of each test compounds in DMEM media (5% FBS) were added. […] The culture plates were re-incubated for 24 hrs at 37° C. in 5% CO2. Cells treated with 0.1% DMSO in complete media (5% FBS) were used as vehicle controls. […] The absorbance was read at 495 nm on spectrophotometer. […] The percent rate of proliferation was calculated using the following formula, % rate of proliferation={(At−Ab)/(Ac−Ab)}×100

hypoxic cortical cells = assay: In-vitro model of hypoxic pre-conditioning; conditions: 2 h hypoxia then treatment at various concentrations, vs positive control hypoxic cells, FIG. 7
[2] = system: hypoxic hippocampal cells; assay: In-vitro model of hypoxic pre-conditioning; conditions: 2 h hypoxia then treatment at various concentrations, vs positive control hypoxic cells, FIG. 7
Protocol: In-vitro model of hypoxic cells was established by hypoxia chamber, which contain 5% carbon dioxide, 1% oxygen and 94% nitrogen. Isolated cortical and hippocampal cells from 1-2 days old rat pups were cultured in 75 cm flask in DMEM medium, after culturing cells were plated on 96 well plate at 7000-8000 viable cells per well and incubated in hypoxia chamber for 2 hour at 37° C. for hypoxic conditioning or oxygen deprivation. Following hypoxic shock, medium was replaced with fresh complete medium. Only cells without hypoxia were kept in normal condition as a control group while untreated hypoxic cells were kept as a positive control cells. Following two hours hypoxia the treatment of isoxylitones at various doses was given to hypoxic cells and MTT assay was used to determine the viability of cells in all treated and control cells. The absorbance of the plate was read by spectrophotometer at 570 nm wavelength.

Calretinin (CR) = assay: Immunocytochemical analysis of primary cultured and cocultured cells; conditions: vs control
Protocol: (§1) Immuncytochemical analysis was performed for differentiation studies of primary cultures of cortex, hippocampus, and co-cultures (CoCul) in absence of growth factors and serum free medium.
(§2) The cultured cells of cortex, hippocampus, and co-cultured cells in the presence of serum free medium were plated in chamber slides at the density of 20,000 cells/mL and treated with a proliferative dose of isoxylitones, i.e., 150 μg/ml for 24 hrs at 37° C. and 5% CO2 to let the cells adhere on the bottom surface of the slide. Following incubation, the media was refreshed and the cells were immunolabelled as mentioned in table #2.1.
(§3) For immunostaining, the media was removed; cells were washed gently with 1 mL of 1×PBS. After removing 1×PBS, 4% formaldehyde was added and the slides were incubated for 20 minutes at room temperature to fix the cells. The fixative was aspirated followed by a three times rinse with 1 mL of 1×PBS. After washing, the blocking buffer (BSA having 3% normal goat serum, 0.2% tween-20 and 0.3% of Triton X-100 in 10×PBS) was added and the slides were kept at room temperature for an hour. Then, the cells were washed gently three times with 1×PBS on an orbital shaker and 300 μL of primary antibodies (dilution mentioned in table #2.1) were added to each slide and incubated overnight at 4° C. Following incubation, the cells were washed gently in PBS three times (5 minutes each wash) on an orbital shaker. Next secondary antibody (Table #2.1) in 3% normal serum or BSA was added to their respective chamber and incubated for 1 hour at room temperature in dark. Following incubation, the slides were washed with 1×PBS.
(§4) Diluted Dapi (1:1000) was added into each slide to counter stain the nucleus. After rinsing twice with distilled water, images were captured using the Nikon 90i with fluorescence microscopes (Nikon. Tokyo, Japan) equipped with Nuance Software version 3.1 (Caliper Life Sciences. Hopkinton, Mass.). The magnification used was 20×.
(§5) For quantification studies, ImageJ software (National Institutes of Health, USA) was used to digitalized the images. This software provides multiple imaging system data comparisons taking densitometry in consideration. Briefly, 5 different regions were randomly selected and the fluorescence intensity was quantified in cells and the background intensity of each image was subtracted from it, the residual particles were measured to represent expression of relevant protein. Cells or fields were counted and percentage intensity of protein expression was measured and means percentage intensity was calculated. Data from three individual experiments was obtained and expressed as means±SEM.

GFAP = assay: as above; conditions: 24 h
Protocol: as §1, §2, §3, §4, §5

Neuro D1 = assay: as above
Protocol: as §1, §2, §3, §4, §5

nestin = assay: as above; conditions: 24 h
Protocol: as §1, §2, §3, §4, §5

neurogenin = assay: as above
Protocol: as §1, §2, §3, §4, §5

tubulin = assay: as above
Protocol: as §1, §2, §3, §4, §5

CC(=O)C=C1C=C(C)CC(C)(C)C1 (mixture of isomers) [isoxylitones]
activity on the cell proliferation (MTT screening) [1]: significant potent activity
recovery of hypoxic cells (phase-contrast morphology) (hypoxic cortical cells): Recovery of hypoxic cells clearly observed
recovery of hypoxic cells (phase-contrast morphology) [2]: Recovery of hypoxic cells clearly observed
Calretinin (CR) fluorescent intensity (Calretinin (CR); (A) cortical and (B) CoCul-CTX cells, FIG. 14): prominent increase in the fluorescent intensity of calretinin
CR expression (immunoreactivity) (Calretinin (CR); (A) hippocampal and (B) CoCul-HP cells, FIG. 15): significant increase in CR expression
GFAP expression (immunofluorescence) (GFAP; (A) cortical and (B) CoCul-CTX cells, vs vehicle control, FIG. 10): prominent increase of GFAP expression
GFAP immunochemistry, intensity of images (GFAP; (A) hippocampal and (B) CoCul-HP cells, 150 μg/ml, vs control, FIG. 11): No significant difference in intensity
Neuro D1 protein expression (Neuro D1; (A) cortical and (B) CoCul-CTX cells, 150 μg/ml, 24 h, vs control, FIG. 16): significant upregulation
Neuro D1 immunofluorescence intensity (Neuro D1; (A) hippocampal and (B) CoCul-HP cells, FIG. 17): significant up-regulation in immunofluorescence of NeuroD1 intensity
nestin expression (immunofluorescence) (nestin; (A) CTX and (B) CoCul-CTX cells, vs control, FIG. 9): no significant difference
nestin expression (immunofluorescence) (nestin; (A) hippocampal and (B) CoCul-HP cells, 150 μg/ml, vs untreated control, FIG. 8): up-regulation of nestin protein expression
neurogenin expression (immunostaining) (neurogenin; (A) cortical and (B) CoCul-CTX cells, FIG. 18): prominent neurogenin expression
neurogenin expression (immunostaining) (neurogenin; (A) hippocampal and (B) CoCul-HP cells, 24 h, vs control P<0.001, FIG. 19): elevated neurogenin expression
tubulin expression (immunofluorescence) (tubulin; (A) cortical and (B) CoCul-CTX cells, P<0.01, FIG. 12): significant upregulation of tubulin
tubulin expression (immunofluorescence) (tubulin; (A) hippocampal and (B) CoCul-HP cells, 150 μg/ml, 24 h, vs control, FIG. 13): significant upregulation
